Assay results reported in article PMC12362244, “Fidelity, specialization, and evolution of Paramecium PolX DNA polymerases involved in programmed double-strand break DNA repair” (Nucleic Acids Research, 2025).

What was measured:
PolXcΔNter = molecular target: T1, PolXcΔNter (Paramecium tetraurelia, UniProt A0DCU7); assay: gap-filling, FAM-primer urea-PAGE; type: biochemical; conditions: gap with nick in template strand; 1 nM enzyme, 1 mM dGTP, 5 mM MgCl2, pH 7.5, 27°C
T1 construct: gene GSPATT00015723001; lacks residues 1-266 (BRCT and linker); cleavable N-terminal 14-His tag; E. coli BL21 Star (DE3)
T1 sequence (A0DCU7 267-608): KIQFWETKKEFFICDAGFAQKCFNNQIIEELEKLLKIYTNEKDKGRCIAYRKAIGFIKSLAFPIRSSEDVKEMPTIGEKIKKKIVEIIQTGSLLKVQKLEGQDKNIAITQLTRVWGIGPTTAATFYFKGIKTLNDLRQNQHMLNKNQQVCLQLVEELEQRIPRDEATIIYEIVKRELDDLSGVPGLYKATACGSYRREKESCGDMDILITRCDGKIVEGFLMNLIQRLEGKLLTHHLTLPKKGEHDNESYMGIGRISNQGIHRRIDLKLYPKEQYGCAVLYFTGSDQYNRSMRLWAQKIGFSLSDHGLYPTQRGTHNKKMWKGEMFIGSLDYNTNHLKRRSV

HsPolλ = molecular target: T2, HsPolλ (Homo sapiens, UniProt Q9UGP5); assay: gap-filling, FAM-primer urea-PAGE; type: biochemical; conditions: continuous template strand; 50 nM enzyme, 1 mM dGTP, 5 mM MgCl2, pH 7.5, 37°C
T2 construct: gene POLL; wild type; cleavable N-terminal 14-His tag; E. coli
T2 sequence (Q9UGP5 1-575): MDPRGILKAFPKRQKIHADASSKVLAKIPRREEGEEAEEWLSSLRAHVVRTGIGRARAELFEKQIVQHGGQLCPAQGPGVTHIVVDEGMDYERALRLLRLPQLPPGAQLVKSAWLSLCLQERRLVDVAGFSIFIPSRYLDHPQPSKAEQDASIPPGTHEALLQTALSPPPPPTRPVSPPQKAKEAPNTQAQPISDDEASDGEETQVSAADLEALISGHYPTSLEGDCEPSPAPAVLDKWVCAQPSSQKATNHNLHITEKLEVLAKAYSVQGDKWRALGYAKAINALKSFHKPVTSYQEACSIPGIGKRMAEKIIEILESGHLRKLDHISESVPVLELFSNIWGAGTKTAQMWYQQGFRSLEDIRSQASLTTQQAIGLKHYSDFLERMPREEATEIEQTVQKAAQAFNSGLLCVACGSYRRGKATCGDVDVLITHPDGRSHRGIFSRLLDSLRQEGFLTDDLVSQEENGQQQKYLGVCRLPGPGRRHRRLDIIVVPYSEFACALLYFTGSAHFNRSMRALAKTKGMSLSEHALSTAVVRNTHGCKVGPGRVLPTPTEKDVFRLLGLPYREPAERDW

Nc1nc2c(ncn2[C@H]2C[C@H](O)[C@@H](COP(=O)(O)OP(=O)(O)OP(=O)(O)O)O2)c(=O)[nH]1 [dGTP]
gap-filling, FAM-primer urea-PAGE (PolXcΔNter): PolXaΔNter, PolXbΔNter, and PolXcΔNter displayed the highest apparent activity | gap-filling, FAM-primer urea-PAGE (HsPolλ): display gap-filling activity similar to hPolλ when using a continuous template strand
